In patent publication US20060229239A9, “Novel curcuminoid-factor VIIa constructs as suppressors of tumor growth and angiogenesis” (priority 2002, published 2006):
Marks after values point to notes of the source that are not given here.

Key:
HUVECs [1] = assay: Neutral Red viability assay, HUVECs; format: cell-based, human; settings: 24 hrs
Experimental: (§1) HUVECs, MS-1 cells and SVR cells were cultured to confluence and agents were incubated for 24 hrs. Cell viability was determined by Neutral Red assays. Among synthetic curcumin analogs, A279L, A279U and EF-15 were not cytotoxic at 20 μM. MS-I cells were murine vascular endothelial cells which were immortalized by transfection of SV40 large T antigen but are non-maligant. However, when MS-1 cells were transfected with a ras mutant gene, cells were transformed to become malignant angiosarcoma cells, (SVR cells).

MS-1 cells = assay: Neutral Red viability assay, MS-1 cells; format: cell-based, murine; settings: 24 hrs
Experimental: as §1

SVR cells = assay: Neutral Red viability assay, SVR cells; format: cell-based, murine; settings: 24 hrs
Experimental: as §1

DU145 = assay: SRB viability test, DU145 human prostate cancer cell line expressing tissue factor; format: cell-based; settings: for O.D. 570 nm, SRB Viability Test: 48 hrs, Mean S.D.
Experimental: DU145 cells were plated with 2×10^4 cells/100 μl/well in a 96 well plate and cultured overnight. The cells were cultured for 48 hrs. Cultures was terminated by adding 40% TCA to a final concentration of 10%. Cells were fixed in TCA at 4° for 1 hr, washed with tap water 5 times and air dried. Sulforhodamine B (SRB) solution (100 μl) at 0.4% (w/v) in 1% acetic acid was added to each well, and the cells were incubated for 10 mins at room temperature. After staining, unbound dye was removed by washing five times with 1% acetic acid and air dried. […] Assays were performed in triplicate or quadruplicate. An asterisk (*) indicates p<0.0001 by the Student t-test (two-tailed probability). The concentration of EF24-FFRck-fVIIa was estimated based on protein concentration.

MDA-MB-231 = assay: Neutral Red (NR) viability test, human breast cancer MDA-MB-231; format: cell-based; settings: Mean ± S.E.
Experimental: (§2) The Neutral Red (NR) dye viability assay, instead of the Sulforhodamine B (SRB) assay, was used. In the NR viability assay, NR dye is taken up only by viable cells, while in the SRB viability assay, viable cells are fixed by trichloracetic acid (TCA) on the plate (thus, cells are killed), and the fixed cells are stained by SRB dye.
(§3) At the termination of culture, medium was removed and 200 μl of fresh, warm medium containing 50 μg of NR/ml was added to each well in a 96-well plate. Cells were incubated at 37° for 30 mins, followed by two washes with 200 μl of PBS. The NR taken up by cells was dissolved by adding 200 μl of 0.5N HCI containing 35% ethanol. The amount of the dye in each well was read at 570 nm by an ELISA plate reader.

RPMI-7951 = assay: Neutral Red (NR) viability test, human melanoma RPMI-7951; format: cell-based; settings: Mean ± S.E.
Experimental: as §2, §3

normal human melanocytes = assay: NR viability test, normal human melanocytes (no tissue factor); format: cell-based; settings: Mean ± S.D.
Experimental: as §2, §3

MCF10 = assay: NR viability test, MCF10 normal human breast luminal ductal cell line (no tissue factor); format: cell-based; settings: Normal Breast Cells (MCF10), Mean ± S.D.
Experimental: as §2, §3

HUVECs [2] = assay: SRB viability test (NCI method), normal HUVECs not expressing tissue factor; format: cell-based, human; settings: Mean ± S.D.
tumor cells = assay: NCI screening system, tumor cells; format: cell-based
Experimental: Curcumin, EF24 and cisplatin were tested against tumor cells in the NCI screening system. Curcuminoids were also added to transformed breast cancer cells and the mean growth inhibitory concentrations determined, as shown in FIG. 5.

[3] = tested on: cells with or without tissue factor on the cell surface; assay: Cell killing in relation to tissue factor expression on the cell surface (summary); format: cell-based
Description: One aspect of the present invention provides novel compositions comprising cytotoxic compounds such as synthetic antitumor and anti-angiogenesis curcumin analogs (curcuminoids) linked to a protein delivery vehicle that can deliver the cytotoxic compoun specifically to cancer cells and vascular endothelial cells having surface-bound tissue factor. Novel compositions of the present invention can comprise a curcuminoid covalently linked to a tether which may be, but is not limited to, a dicarboxylic acid such as succinate. The tether is covalently linked to a N-terminal amino acid of a peptidyl linker such as phenylalanine-phenylalanine-arginine, the C-terminal amino acid of which comprises a methylketone. […] Preferably, the curcuminoid-tether-linker will have bonded to an amino acid of the serine protease domain of the fVIIa, thereby blocking the procoagulating activity of the novel therapeutic composition. The present invention also provides methods of synthesis of cytotoxic compound-protein conjugates. The compositions and methods of the present invention may increase the efficacy of the cytotoxic agents and decrease their side effects by delivering the agents to specific target cells. […] The conjugate EF24-FFRck-fVIIa construct of the present invention kills cancer cell lines and vascular endothelial cells, such as HUVECs, that express tissue factor on the cell surface.

Cell cytotoxicity assays = format: cell-based
Experimental: Of several compounds examined, the succinic acid derivative aa (86% yield) was suitable since it retained 50% of the activity of EF24 in cell cytotoxicity assays. To synthesize the succinyl derivative aa of EF24, to a solution of EF24 (0.16 g, 0.5 mmol) in anhydrous CH2Cl2 (6 ml) was added succinic anhydride (0.057 g, 0.5 mmol) and Et3N (101 mg, 1 mmol). The mixture was stirred at room temperature for 3 hrs, diluted with CH2Cl2, washed twice with saturated NaHCO3 (2×10 ml) and brine, dried over anhydrous Na2SO4, and relieved of solvent by evaporation. The resulting solid was purified by flash chromatography using benzene/acetone/acetic acid (27:10:0.5) as the eluant to obtain the yellow solid aa ([…], mp 145° C., 86% yield). [drawing 15]

Row | Compound | O.D. 570 nm, SRB Viability Test (DU145; DU145, 0.8 pM) | O.D. 570 nm, SRB Viability Test (DU145; DU145, 8 pM) | O.D. 570 nm, NR Viability Test (MDA-MB-231; MDA231, 1 pM) | O.D. 570 nm, NR Viability Test (MDA-MB-231; MDA231, 2 pM) | O.D. 570 nm, NR Viability Test (RPMI-7951; RPM17951, 1 pM) | O.D. 570 nm, NR Viability Test (RPMI-7951; RPM17951, 2 pM) | O.D 570 nm, NR Viability Test (normal human melanocytes; 0.8 pM) | O.D 570 nm, NR Viability Test (normal human melanocytes; 4 pM) | O.D 570 nm, NR Viability Test (MCF10; 0.8 pM) | O.D 570 nm, NR Viability Test (MCF10; 4 pM) | O.D. 490 nm, SRB Viability Test (HUVECs [2]; 0.8 pM) | O.D. 490 nm, SRB Viability Test (HUVECs [2]; 8 pM) | killing of cancer cells and normal cells regardless of tissue factor expression [3] | further results
1 | COc1cc(/C=C/C(=O)CC(=O)/C=C/c2ccc(O)c(OC)c2)ccc1O [Curcumin, diferuloylmethane] | – | – | – | – | – | – | – | – | – | – | – | – | – | Neutral Red Viability Assay (% of Control) (HUVECs [1]; 1 μM): 103 % of Control; Neutral Red Viability Assay (% of Control) (HUVECs [1]; 20 μM): 21 % of Control; Neutral Red Viability Assay (% of Control) (MS-1 cells; 1 μM): 90 % of Control; Neutral Red Viability Assay (% of Control) (MS-1 cells; 20 μM): 3 % of Control; Neutral Red Viability Assay (% of Control) (SVR cells; 1 μM): 88 % of Control; Neutral Red Viability Assay (% of Control) (SVR cells; 20 μM): 4 % of Control
2 | O=C1/C(=C/c2ccccc2F)CNC/C1=C\c1ccccc1F [EF24, 3,5-Bis-(2-fluorobenzylidene)-piperidin-4-one] | 0.391 ± 0.041 | 0.053 ± 0.025* | 0.172 ± 0.020 | 0.109 ± 0.014 | 0.220 ± 0.023 | 0.119 ± 0.018 | 0.255 ± 0.009 | 0.119 ± 0.009 | 0.104 ± 0.018 | 0.091 ± 0.007 | 0.136 ± 0.010 | 0.038 ± 0.010 | indiscriminatingly kills | potency relative to cisplatin (tumor cells): about 10 times; effectiveness against tumor cells compared with cisplatin or curcumin (tumor cells; NCI screening system, FIG. 4): significantly more effective
3 | N=C(N)NCCC[C@H](NC(=O)[C@H](Cc1ccccc1)NC(=O)[C@@H](Cc1ccccc1)NC(=O)CCC(=O)N1C/C(=C\c2ccccc2F)C(=O)/C(=C/c2ccccc2F)C1)C(=O)CCl [EF24-FFRck] | 0.389 ± 0.021 | 0.383 ± 0.027 | 0.191 ± 0.013 | 0.171 ± 0.009 | 0.253 ± 0.018 | 0.247 ± 0.020 | 0.252 ± 0.007 | 0.249 ± 0.015 | 0.101 ± 0.013 | 0.113 ± 0.003 | 0.152 ± 0.026 | 0.160 ± 0.038 | does not kill | cell killing (DU145; EF24-FFRck alone, Table 2): does not kill any cells
4 | O=C(O)CCC(=O)N1C/C(=C\c2ccccc2F)C(=O)/C(=C/c2ccccc2F)C1 [aa] | – | – | – | – | – | – | – | – | – | – | – | – | – | activity retained relative to EF24 in cell cytotoxicity assays (Cell cytotoxicity assays): 50%
